pIC50: −log10 of the molar value.
Tests used:
His6-JNK3 = biological target: T1, His6-JNK3 (Homo sapiens, UniProt P53779); assay: JNK assay (c-Jun phosphorylation), JNK3; format: biochemical; details: read-out: IC50 for JNK3 (c-Jun phosphorylation reduced to 50% of control)
T1 construct: His6 (N)
Procedure: (§1) To 10 μL of 5-amino-anthra(9,1-cd)isothiazol-6-one in 20% DMSO/80% dilution buffer containing of 20 mM HEPES (pH 7.6), 0.1 mM EDTA, 2.5 mM magnesium chloride, 0.004% Triton ×100, 2 μg/mL leupeptin, 20 mM β-glycerolphosphate, 0.1 mM sodium vanadate, and 2 mM DTT in water was added 30 μL of 50-200 ng His6-JNK1, JNK2, or JNK3 in the same dilution buffer. The mixture was pre-incubated for 30 minutes at room temperature. Sixty microliter of 10 μg GST-c-Jun(1-79) in assay buffer consisting of 20 mM HEPES (pH 7.6), 50 mM sodium chloride, 0.1 mM EDTA, 24 mM magnesium chloride, 1 mM DTT, 25 mM PNPP, 0.05% Triton ×100, 11 μM ATP, and 0.5 μCi γ-32P ATP in water was added and the reaction was allowed to proceed for 1 hour at room temperature. The c-Jun phosphorylation was terminated by addition of 150 μL of 12.5% trichloroacetic acid. After 30 minutes, the precipitate was harvested onto a filter plate, diluted with 50 μL of the scintillation fluid and quantified by a counter. The IC50 values were calculated as the concentration of 5-amino-anthra(9,1-cd)isothiazol-6-one at which the c-Jun phosphorylation was reduced to 50% of the control value. Compounds that inhibit JNK preferably have an IC50 value ranging 0.01-10 μM in this assay. 5-Amino-anthra(9,1-cd)isothiazol-6-one has an IC50 according to this assay of 1 μM for JNK2 and 400 nM for JNK3.

IKK2 = biological target: T2, IKK2 (Homo sapiens, UniProt O14920); assay: Selectivity for JNK: protein kinase panel, IKK2; format: biochemical
T2 sequence (O14920 1-756): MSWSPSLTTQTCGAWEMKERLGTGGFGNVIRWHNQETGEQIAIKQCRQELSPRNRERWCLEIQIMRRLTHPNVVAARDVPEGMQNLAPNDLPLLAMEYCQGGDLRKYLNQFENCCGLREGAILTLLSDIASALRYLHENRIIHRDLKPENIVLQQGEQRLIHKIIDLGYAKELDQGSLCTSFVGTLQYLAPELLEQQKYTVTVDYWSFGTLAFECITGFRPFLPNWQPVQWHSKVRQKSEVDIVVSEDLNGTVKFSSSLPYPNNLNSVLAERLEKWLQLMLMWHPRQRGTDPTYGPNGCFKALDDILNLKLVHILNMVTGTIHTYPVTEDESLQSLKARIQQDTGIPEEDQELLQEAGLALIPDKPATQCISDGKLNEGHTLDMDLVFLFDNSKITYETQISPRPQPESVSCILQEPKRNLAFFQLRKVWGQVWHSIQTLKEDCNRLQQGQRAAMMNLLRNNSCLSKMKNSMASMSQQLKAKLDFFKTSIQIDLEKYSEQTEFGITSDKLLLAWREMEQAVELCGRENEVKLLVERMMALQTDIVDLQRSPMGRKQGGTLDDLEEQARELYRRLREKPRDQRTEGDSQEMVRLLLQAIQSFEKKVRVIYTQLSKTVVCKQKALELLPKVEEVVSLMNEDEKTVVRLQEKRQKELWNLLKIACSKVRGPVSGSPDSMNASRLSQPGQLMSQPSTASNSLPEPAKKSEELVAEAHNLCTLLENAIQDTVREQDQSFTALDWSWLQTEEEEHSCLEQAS
Procedure: (§2) 5-Amino-anthra(9,1-cd)isothiazol-6-one was also assayed for its inhibitory activity against several protein kinases, listed below, using techniques known to those skilled in art (See, e.g., Protein Phosphorylation, Sefton & Hunter, Eds., Academic Press, pp. 97-367, 1998).

[1] = Solubility in aqueous media (remark); format: physicochemical
His6-JNK2 = biological target: T3, His6-JNK2 (Homo sapiens, UniProt P45984); assay: JNK assay (c-Jun phosphorylation), JNK2; format: biochemical; details: read-out: IC50 for JNK2 (c-Jun phosphorylation reduced to 50% of control)
T3 construct: His6 (N)
T3 sequence (P45984 whole entry): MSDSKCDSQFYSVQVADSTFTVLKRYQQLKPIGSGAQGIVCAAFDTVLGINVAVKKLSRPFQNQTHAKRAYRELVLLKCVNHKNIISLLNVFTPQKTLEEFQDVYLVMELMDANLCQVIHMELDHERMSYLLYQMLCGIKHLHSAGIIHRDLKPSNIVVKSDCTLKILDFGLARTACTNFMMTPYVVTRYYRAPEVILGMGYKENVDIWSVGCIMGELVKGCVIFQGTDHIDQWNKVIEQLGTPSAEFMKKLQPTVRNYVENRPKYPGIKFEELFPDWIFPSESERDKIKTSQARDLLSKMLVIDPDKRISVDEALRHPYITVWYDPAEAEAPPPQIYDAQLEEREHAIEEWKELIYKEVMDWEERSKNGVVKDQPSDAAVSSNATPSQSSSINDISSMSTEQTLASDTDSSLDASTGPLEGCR
Procedure: as §1

[2] = test system: IL-2 production in Jurkat T cells (clone E6-1); assay: Jurkat T-cell IL-2 production assay; format: cell-based; details: Homo sapiens, 10 h, read-out: IC50, IL-2 production reduced to 50% of control
Procedure: Jurkat T cells (clone E6-1) were purchased from the American Type Culture Collection of Manassas, Va. and maintained in growth media consisting of RPMI 1640 medium containing 2 mM L-glutamine (commercially available from Mediatech Inc. of Hemdon, Va.), with 10% fetal bovine serum (commercially available from Hyclone Laboratories Inc. of Omaha, Nebr.) and penicillin/streptomycin. All cells were cultured at 37° C. in 95% air and 5% CO2. Cells were plated at a density of 0.2×10^6 cells per well in 200 μL of media. Compound stock (20 mM) was diluted in growth media and added to each well as a 10× concentrated solution in a volume of 25 μL, mixed, and allowed to pre-incubate with cells for 30 minutes. The compound vehicle (dimethylsulfoxide) was maintained at a final concentration of 0.5% in all samples. After 30 minutes the cells were activated with PMA (phorbol myristate acetate, final concentration 50 ng/mL) and PHA (phytohemagglutinin, final concentration 2 μg/mL). PMA and PHA were added as a 10× concentrated solution made up in growth media and added in a volume of 25 μL per well. Cell plates were cultured for 10 hours. Cells were pelleted by centrifugation and the media removed and stored at −20° C. Media aliquots are analyzed by sandwich ELISA for the presence of IL-2 as per the manufacturers instructions (Endogen Inc. of Woburn, Mass.). […]

LKK1 = biological target: T4, LKK1 (Homo sapiens, UniProt O15111); assay: Selectivity for JNK: protein kinase panel, LKK1; format: biochemical
T4 sequence (O15111 1-745): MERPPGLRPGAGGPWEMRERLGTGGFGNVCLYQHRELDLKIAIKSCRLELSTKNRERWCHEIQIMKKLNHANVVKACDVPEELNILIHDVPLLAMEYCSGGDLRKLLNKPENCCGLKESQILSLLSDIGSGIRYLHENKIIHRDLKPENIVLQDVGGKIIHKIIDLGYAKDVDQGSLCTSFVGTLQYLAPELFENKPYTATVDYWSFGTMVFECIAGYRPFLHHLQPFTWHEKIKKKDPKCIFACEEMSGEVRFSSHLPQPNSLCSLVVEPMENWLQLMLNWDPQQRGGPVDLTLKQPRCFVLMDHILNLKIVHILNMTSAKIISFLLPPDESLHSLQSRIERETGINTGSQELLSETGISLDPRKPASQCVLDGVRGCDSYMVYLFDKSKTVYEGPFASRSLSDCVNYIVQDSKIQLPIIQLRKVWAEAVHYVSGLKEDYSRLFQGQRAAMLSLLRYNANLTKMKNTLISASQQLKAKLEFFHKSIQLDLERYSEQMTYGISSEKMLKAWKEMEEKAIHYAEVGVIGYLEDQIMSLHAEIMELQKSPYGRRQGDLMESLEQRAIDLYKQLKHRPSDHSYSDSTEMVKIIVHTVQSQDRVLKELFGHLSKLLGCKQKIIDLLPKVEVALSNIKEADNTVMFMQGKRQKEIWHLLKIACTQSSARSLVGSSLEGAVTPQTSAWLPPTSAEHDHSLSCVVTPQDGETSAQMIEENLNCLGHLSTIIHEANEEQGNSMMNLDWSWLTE
Procedure: as §2

[3] = test system: rat ventral mesencephalan dopaminergic neurons; assay: [3H]Dopamine cell culture assay (6-OHDA neurotoxicity); format: cell-based; details: 6-OHDA 30 μM, uptake 22 hours after exposure
Procedure: Cultures of dopaminergic neurons were prepared according to a modification of the procedure described by Raymon and Leslie (J. Neurochem. 62:1015-1024, 1994). Time-mated pregnant rats were sacrificed on embyronic day 14-15 (crown rump length 11-12 mm) and the embryos removed by cesarean section. The ventral mesencephalon, containing the dopaminergic neurons, was dissected from each embryo. Tissue pieces from approximately 48 embryos were pooled and dissociated both enzymatically and mechanically. An aliquot from the resulting cell suspension was counted and the cells were plated in high glucose DMEM/F12 culture medium with 10% fetal bovine serum at a density of 1×10^5 cells/well of a Biocoat poly-D-lysine-coated 96-well plate. The day following plating was considered 1 day in vitro (DIV). Cells were maintained in a stable environment at 37° C., 95% humidity, and 5% CO2. A partial medium change was performed at 3 DIV. […]
[^3H]Dopamine uptake is used as a measure of the health and integrity of dopaminergic neurons in culture (Prochiantz et al., PNAS 76: 5387-5391, 1979). […] Briefly, cells treated with 6-OHDA in the presence and absence of 5-amino-anthra(9,1-cd)isothiazol-6-one were assessed in the uptake assay 22 hrs after exposure to 6-OHDA. […] Radioactivity was removed and the cultures were washed 3× with ice cold PBS. […]

p38-2 = p38-2 (Homo sapiens, UniProt Q15759); assay: Selectivity for JNK: protein kinase panel, p38-2; format: biochemical
p38-2, sequence (Q15759 whole entry, species assumed): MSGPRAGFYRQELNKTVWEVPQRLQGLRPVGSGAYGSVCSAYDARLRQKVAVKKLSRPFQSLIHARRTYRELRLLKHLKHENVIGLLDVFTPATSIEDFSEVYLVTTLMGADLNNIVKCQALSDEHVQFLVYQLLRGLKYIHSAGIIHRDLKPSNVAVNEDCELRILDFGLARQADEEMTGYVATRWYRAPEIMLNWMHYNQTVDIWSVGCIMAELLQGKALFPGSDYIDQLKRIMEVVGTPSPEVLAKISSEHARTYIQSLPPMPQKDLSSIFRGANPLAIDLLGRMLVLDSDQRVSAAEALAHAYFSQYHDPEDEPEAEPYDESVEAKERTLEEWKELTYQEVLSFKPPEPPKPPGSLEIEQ
Procedure: as §2

MEK6 = biological target: T5, MEK6 (Homo sapiens, UniProt P52564); assay: Selectivity for JNK: protein kinase panel, MEK6; format: biochemical
T5 sequence (P52564 1-334): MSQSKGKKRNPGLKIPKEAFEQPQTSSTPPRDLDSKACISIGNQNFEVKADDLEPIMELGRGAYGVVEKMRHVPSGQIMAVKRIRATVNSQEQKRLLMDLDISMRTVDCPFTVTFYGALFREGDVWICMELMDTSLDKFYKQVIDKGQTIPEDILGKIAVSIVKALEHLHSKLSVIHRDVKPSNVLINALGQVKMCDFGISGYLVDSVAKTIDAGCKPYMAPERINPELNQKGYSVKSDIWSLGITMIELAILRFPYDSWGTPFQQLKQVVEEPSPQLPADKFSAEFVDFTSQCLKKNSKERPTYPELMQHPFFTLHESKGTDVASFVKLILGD
Procedure: as §2

[4] = Brain-blood plasma distribution in vivo; parameters: species or system Sprague-Dawley rats; details: rat
Procedure: 5-Amino-anthra(9,1-cd)isothiazol-6-one was administered intravenously (10 mg/kg) into the veins of Sprague-Dawley rats. After 2 hr, blood samples were obtained from the animals and their vascular systems were perfused with approximately 100 mL of saline to rid their brains of blood. The brains were removed from the animals, weighed, and homogenized in a 50 mL conical tube containing 10 equivalents (w/v) of methanol/saline (1:1) using a Tissue Tearer (Fischer Scientific). The homogenized material was extracted by adding 600 μL of cold methanol to 250 μL of brain homogenate vortexed for 30 sec and subjected to centrifugation for 5 min. After centrifugation, 600 μL of the resulting supernatant was transferred to a clean tube and evaporated at room temperature under reduced pressure to provide a pellet. The resulting pellet was reconstituted in 250 μL of 30% aqueous methanol to provide a brain homogenate analysis sample. A plasma analysis sample was obtained using the brain homogenate analysis sample procedure described above by substituting plasma for brain homogenate. Standard plasma samples and standard brain homogenate samples containing known amounts of 5-amino-anthra(9,1-cd)isothiazol-6-one were also prepared by adding 5 μL of serial dilutions (50:1) of a solution of 5-amino-anthra(9,1-cd)isothiazol-6-one freshly prepared in cold ethanol to 250 μL of control rat plasma (Bioreclamation of Hicksville, N.Y.) or control brain homogenate. The standard plasma samples and standard brain homogenate samples were then subjected to the same extraction by protein precipitation, centrifugation, evaporation, and reconstitution procedure used for the brain homogenate to provide brain homogenate standard analysis samples and plasma standard analysis samples. The brain homogenate analysis samples, plasma analysis samples, and standard analysis samples were analyzed and compared using HPLC by injecting 100 μL of a sample onto a 5 μm C-18 Luna column (4.6 mm×150 mm, commercially available from Phenomenex of Torrance, Calif.) and eluting at 1 mL/min with a linear gradient of 30% aqueous acetonitrile containing 0.1% trifluoroacetic acid to 90% aqueous acetonitrile containing 0.1% trifluoroacetic acid over 8 minutes and holding at 90% aqueous acetonitrile containing 0.1% trifluoroacetic acid for 3 min. with absorbance detection at 450 nm. […] The concentration of 5-amino-anthra(9,1-cd) isothiazol-6-one in the brain and plasma was determined by comparing HPLC chromatograms obtained from the brain homogenate analysis samples and plasma analysis samples to standard curves constructed from analysis of the brain homogenate standard analysis samples and the plasma standard analysis samples, respectively. […]

T1 sequence (P53779 whole entry): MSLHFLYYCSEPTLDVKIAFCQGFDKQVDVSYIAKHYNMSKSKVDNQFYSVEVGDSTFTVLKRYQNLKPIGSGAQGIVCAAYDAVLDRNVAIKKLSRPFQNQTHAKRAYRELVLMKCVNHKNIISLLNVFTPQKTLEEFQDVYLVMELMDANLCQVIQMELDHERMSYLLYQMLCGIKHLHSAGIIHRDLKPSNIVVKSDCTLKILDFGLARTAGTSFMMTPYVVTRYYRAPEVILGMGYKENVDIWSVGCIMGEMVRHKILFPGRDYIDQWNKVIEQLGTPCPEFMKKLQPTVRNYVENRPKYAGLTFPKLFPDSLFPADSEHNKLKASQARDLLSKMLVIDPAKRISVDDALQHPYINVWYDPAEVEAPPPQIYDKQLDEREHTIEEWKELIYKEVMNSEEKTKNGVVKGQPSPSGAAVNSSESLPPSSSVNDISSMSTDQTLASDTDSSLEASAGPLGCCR

pIC50 (His6-JNK3): 6.40 | pIC50 (IKK2): < 4.52 | Solubility in aqueous media [1]: limited solubility | pIC50 (His6-JNK2): 6.00 | pIC50 [2]: 4.52 | pIC50 (LKK1): < 4.52 | pIC50 (p38-2): < 4.52 | pIC50 (MEK6): < 4.52 | Kp at 2 h ([4]; Sprague-Dawley, iv, 10 mg/kg intravenously, 2 hr post-dose, assuming 1 g brain tissue equivalent to 1 mL plasma, read-out: Brain-plasma concentration ratio): ~9 | concentration at 2 h ([4]; Sprague-Dawley, plasma, iv, 10 mg/kg intravenously, 2 hr post-dose): ~7 µM | Brain-drug concentration ([4]; 10 mg/kg intravenously, 2 hr post-dose): approximately 65 nmole/g
SMILES: Nc1ccc2snc3c2c1C(=O)c1ccccc1-3 [5-amino-anthra(9,1-cd)isothiazol-6-one]
Protection of dopaminergic neurons from 6-OHDA ([3H]dopamine uptake) [3]: protects rat ventral mesencephalan neurons from the toxic effects of 6-OHDA | Blood-brain barrier crossing ([4]; following intravenous administration): crosses the blood-brain barrier to a significant extent
